Assay results taken from patent publication US6541455B2, “Methods and kits for removing, treating, or preventing lice with driable pediculostatic agents” (priority 1999, dated 2003).

What was measured:
[1] = tested on: head lice; assay: In vitro immersion reflex test: louse placed in a drop of wet agent on a microscope slide; set-up: species or system Pediculus humanus capitis; conditions: water by itself
Text: Driable pediculostatic agents useful in the methods and kits of the present invention are characterized by their ability to induce an immersion reflex in lice in their wet form and to keep the lice in the immersion reflex once dried. The following in vitro test can be conveniently used to determine whether any individual agent is a pediculostatic agent, and can further be used for routine screening of agents—such as those from natural products libraries and combinatorial chemical libraries—to identify those that can be used in the methods, compositions, and kits of the present invention:
1. Contact a louse with an agent suspected of being a pediculostatic agent; and
2. Observe whether the louse becomes immobile.
Observations can readily be performed using a standard inexpensive light microscope with 10× or 40× magnification. The length of time necessary to render the louse completely immobile, in minutes, is the Immersion Reflex Index of the agent tested.
Ten crawling lice were obtained from patients with head lice and each one placed on a separate microscope slide for observation under a microscope at 10× or 40× power. […] Within 6 seconds of application, they stopped all spontaneous movement. Usually within 30 seconds, and always within 60 seconds, they would not respond to contact by a probe and ceased previously visible gastrointestinal motility. […]

[2] = tested on: head lice; assay: In vitro test of agent dried onto lice (driable pediculostatic agent test); set-up: species or system Pediculus humanus capitis; conditions: water by itself
Text: Contact a louse with a pediculostatic agent for a period of time sufficient to immobilize the louse (i.e., for at least 1× the Immersion Reflex Index of the agent);
Dry the agent onto the louse, either by air-drying or by application of heat, and observe whether the louse remains immobilized.
The period of time necessary for a particular dried agent to kill the louse can be conveniently determined by rinsing the dried agent off lice as a function of time and observing whether the rinsed lice regain mobility upon drying off.
Six crawling lice were obtained from patients with head lice and each placed in a drop of […] ® Cleanser as described in EXAMPLE 1. After 2 min., the cleanser was dried onto the lice by air drying (4 lice) or gentle warm air from a hair dryer (2 lice).

## O [water]
[1]
  induction of the immersion reflex in lice: triggers the immersion reflex
[2]
  lice upon drying of the agent: recover and regain mobility
